Where two headings read alike, the source gives them in different places.
Legend:
Type in all cases: biochemical
[1] = molecular target: PI3K-gamma (Homo sapiens, UniProt P48736); test: PI3K-gamma fluorescence polarization assay; settings: PI3Kγ Avg. IC50
Outline: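 Each isoform (5 ng) phosphorylated 2.5 μM diC8-PI(4,5)P2 at 25 μM ATP for one hour at 25° C in the presence of inhibitor. Reactions were then stopped with EDTA, and product was detected by fluorescence polarization using a GST-GRP1 PH domain and a BODIPY-TMR-labelled IP4 tracer.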

[2] = molecular target: T1, human TOR (Homo sapiens, UniProt P42345); test: mTOR enzyme assay (DELFIA, His6-S6K substrate); settings: read-out: mTOR Kinase Avg. IC50
T1 construct: FLAG

[3] = molecular target: PI3K-alpha (Homo sapiens, UniProt P42336); test: PI3K-alpha fluorescence polarization assay
Chain of PI3K-alpha (P42336 whole entry, species assumed): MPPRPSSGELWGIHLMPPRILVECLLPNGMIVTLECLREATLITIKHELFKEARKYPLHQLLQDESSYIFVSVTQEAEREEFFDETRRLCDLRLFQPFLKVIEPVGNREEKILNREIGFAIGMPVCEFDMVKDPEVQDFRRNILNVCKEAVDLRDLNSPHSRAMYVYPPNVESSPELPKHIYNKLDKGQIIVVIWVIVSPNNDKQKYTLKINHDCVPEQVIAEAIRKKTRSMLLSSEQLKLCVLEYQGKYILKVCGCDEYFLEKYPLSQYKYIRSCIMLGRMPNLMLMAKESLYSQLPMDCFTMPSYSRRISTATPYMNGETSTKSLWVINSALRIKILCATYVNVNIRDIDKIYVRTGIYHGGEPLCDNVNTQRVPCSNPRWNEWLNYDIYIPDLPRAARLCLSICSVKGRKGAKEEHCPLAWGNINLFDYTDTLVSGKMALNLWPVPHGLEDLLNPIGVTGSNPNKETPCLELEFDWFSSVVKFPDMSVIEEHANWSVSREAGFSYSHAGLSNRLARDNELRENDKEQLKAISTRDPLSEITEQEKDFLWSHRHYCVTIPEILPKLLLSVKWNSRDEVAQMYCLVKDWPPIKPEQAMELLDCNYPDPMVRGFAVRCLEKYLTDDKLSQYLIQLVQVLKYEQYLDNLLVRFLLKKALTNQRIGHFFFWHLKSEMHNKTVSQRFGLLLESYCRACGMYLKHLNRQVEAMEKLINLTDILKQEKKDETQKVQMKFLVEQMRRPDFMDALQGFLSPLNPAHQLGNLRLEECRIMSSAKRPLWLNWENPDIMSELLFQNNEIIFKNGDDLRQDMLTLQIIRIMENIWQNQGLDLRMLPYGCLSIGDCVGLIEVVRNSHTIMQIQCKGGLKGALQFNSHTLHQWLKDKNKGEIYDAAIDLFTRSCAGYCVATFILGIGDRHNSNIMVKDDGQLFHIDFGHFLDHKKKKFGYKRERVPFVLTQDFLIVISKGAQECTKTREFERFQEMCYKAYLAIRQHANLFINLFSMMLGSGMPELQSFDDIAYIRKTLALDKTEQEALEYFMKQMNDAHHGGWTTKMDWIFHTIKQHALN
Chain of PI3K-alpha (P27986 whole entry partner, species assumed): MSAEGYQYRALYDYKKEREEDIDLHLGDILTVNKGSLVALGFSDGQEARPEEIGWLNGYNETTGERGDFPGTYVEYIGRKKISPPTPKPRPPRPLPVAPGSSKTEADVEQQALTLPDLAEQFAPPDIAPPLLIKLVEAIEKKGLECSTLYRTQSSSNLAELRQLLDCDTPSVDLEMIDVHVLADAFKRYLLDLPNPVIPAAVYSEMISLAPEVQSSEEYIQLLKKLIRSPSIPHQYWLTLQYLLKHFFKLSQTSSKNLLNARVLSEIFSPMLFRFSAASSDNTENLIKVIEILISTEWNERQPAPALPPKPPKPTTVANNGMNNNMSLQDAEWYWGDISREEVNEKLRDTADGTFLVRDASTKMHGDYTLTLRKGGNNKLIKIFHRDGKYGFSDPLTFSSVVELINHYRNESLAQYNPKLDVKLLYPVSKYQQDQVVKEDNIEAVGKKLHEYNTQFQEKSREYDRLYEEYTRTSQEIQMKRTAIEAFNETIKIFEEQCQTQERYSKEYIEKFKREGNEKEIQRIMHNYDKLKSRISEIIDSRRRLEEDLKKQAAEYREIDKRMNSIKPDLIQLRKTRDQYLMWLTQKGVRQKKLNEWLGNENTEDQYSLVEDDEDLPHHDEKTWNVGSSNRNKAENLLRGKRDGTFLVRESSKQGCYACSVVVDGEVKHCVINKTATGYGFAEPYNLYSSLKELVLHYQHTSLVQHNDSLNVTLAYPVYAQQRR

Chain of PI3K-gamma (P48736 whole entry, species assumed, the tested form may be a part, canonical isoform): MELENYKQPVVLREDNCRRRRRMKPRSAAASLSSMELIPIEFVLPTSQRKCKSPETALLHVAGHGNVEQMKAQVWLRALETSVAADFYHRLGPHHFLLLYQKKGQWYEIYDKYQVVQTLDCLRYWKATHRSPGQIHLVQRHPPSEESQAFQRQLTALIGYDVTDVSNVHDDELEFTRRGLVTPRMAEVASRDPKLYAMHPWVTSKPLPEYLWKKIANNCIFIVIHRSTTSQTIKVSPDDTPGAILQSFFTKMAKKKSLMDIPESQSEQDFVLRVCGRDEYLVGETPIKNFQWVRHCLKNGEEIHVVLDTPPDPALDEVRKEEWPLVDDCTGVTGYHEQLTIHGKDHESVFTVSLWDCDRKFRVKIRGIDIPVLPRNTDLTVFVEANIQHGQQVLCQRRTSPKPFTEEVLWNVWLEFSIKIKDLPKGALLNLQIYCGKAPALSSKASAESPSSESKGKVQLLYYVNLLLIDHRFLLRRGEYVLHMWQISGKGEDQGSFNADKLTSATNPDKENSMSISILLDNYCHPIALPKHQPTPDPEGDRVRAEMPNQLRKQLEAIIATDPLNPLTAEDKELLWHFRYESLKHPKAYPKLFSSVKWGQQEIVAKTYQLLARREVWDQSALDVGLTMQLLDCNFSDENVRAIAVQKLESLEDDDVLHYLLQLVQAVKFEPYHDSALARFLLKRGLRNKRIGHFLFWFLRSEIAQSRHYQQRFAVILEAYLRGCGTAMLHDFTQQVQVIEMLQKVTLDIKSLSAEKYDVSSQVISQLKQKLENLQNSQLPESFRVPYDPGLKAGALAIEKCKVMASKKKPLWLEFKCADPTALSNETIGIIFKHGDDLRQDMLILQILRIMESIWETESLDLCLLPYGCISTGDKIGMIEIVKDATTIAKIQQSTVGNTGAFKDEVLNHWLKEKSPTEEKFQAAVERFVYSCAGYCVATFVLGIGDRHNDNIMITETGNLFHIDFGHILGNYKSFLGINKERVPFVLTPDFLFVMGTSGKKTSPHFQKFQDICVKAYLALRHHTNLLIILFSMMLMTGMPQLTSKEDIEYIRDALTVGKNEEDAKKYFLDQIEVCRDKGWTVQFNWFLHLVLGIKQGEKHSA

SMILES | IC50 [1] [nM] | IC50 [2] [nM] | IC50 ([3]; read-out: PI3Kα Avg. IC50) [nM] | IC50 ([3]; PI3Kα Avg. IC50) [nM]
CNC(=O)Nc1ccc2c(c1)C(=O)/C(=C/c1c(-c3c(C)nn(C)c3C)[nH]c3c(C(F)(F)F)cc(OC)cc13)O2 [Compound 725, 1-[(2Z)-2-{[5-methoxy-7-(trifluoromethyl)-2-(1,3,5-trimethyl-1H-pyrazol-4-yl)-1H-indol-3-yl]methylidene}-3-oxo-2,3-dihydro-1-benzofuran-5-yl]-3-methylurea] | 74 | 530 | 13 | 
CNC(=O)Nc1ccc2c(c1)C(=O)/C(=C/c1c(-c3c(C)nn(C)c3C)[nH]c3c(C)cc(OC)cc13)O2 [Compound 726, 1-[(2Z)-2-{[5-methoxy-7-methyl-2-(1,3,5-trimethyl-1H-pyrazol-4-yl)-1H-indol-3-yl]methylidene}-3-oxo-2,3-dihydro-1-benzofuran-5-yl]-3-methylurea] | 13.7 | 18 | 1.37 | 
COc1cc(F)c2[nH]c(-c3c(C)nn(C)c3C)c(/C=C3\Oc4ccc(NC(=O)NCCN5CCCC5)cc4C3=O)c2c1 [Compound 727, 1-[(2Z)-2-{[7-fluoro-5-methoxy-2-(1,3,5-trimethyl-1H-pyrazol-4-yl)-1H-indol-3-yl]methylidene}-3-oxo-2,3-dihydro-1-benzofuran-5-yl]-3-(2-pyrrolidin-1-ylethyl)urea] | 6.25 | 48 | 1.45 | 
CNCCNC(=O)Nc1ccc2c(c1)C(=O)/C(=C/c1c(-c3c(C)nn(C)c3C)[nH]c3c(F)cc(OC)cc13)O2 [Compound 728, 1-[(2Z)-2-{[7-fluoro-5-methoxy-2-(1,3,5-trimethyl-1H-pyrazol-4-yl)-1H-indol-3-yl]methylidene}-3-oxo-2,3-dihydro-1-benzofuran-5-yl]-3-[2-(methylamino)ethyl]urea] | 3.55 | 7 | 0.95 | 
COc1cc(F)c2[nH]c(-c3c(C)nn(C)c3C)c(/C=C3\Oc4ccc(NC(=O)Nc5ccc(C(=O)N6CCC(N(C)C)CC6)cc5)cc4C3=O)c2c1 [Compound 729, 1-(4-{[4-(dimethylamino)piperidin-1-yl]carbonyl}phenyl)-3-[(2Z)-2-{[7-fluoro-5-methoxy-2-(1,3,5-trimethyl-1H-pyrazol-4-yl)-1H-indol-3-yl]methylidene}-3-oxo-2,3-dihydro-1-benzofuran-5-yl]urea] | 2.9 | 1 | 0.35 | 
COc1cc(F)c2[nH]c(-c3c(C)nn(C)c3C)c(/C=C3\Oc4ccc(NC(=O)Nc5ccc(C(=O)N6CCN(C)C(C)C6)cc5)cc4C3=O)c2c1 (stereo not drawn) [Compound 730, 1-{4-[(3,4-dimethylpiperazin-1-yl)carbonyl]phenyl}-3-[(2Z)-2-{[7-fluoro-5-methoxy-2-(1,3,5-trimethyl-1H-pyrazol-4-yl)-1H-indol-3-yl]methylidene}-3-oxo-2,3-dihydro-1-benzofuran-5-yl]urea] | 1.9 | 3 | 0.65 | 
COc1cc(F)c2[nH]c(-c3c(C)nn(C)c3C)c(/C=C3\Oc4ccc(NC(=O)Nc5ccc(C(=O)N6CCOCC6)cc5)cc4C3=O)c2c1 [Compound 731, 1-[(2Z)-2-{[7-fluoro-5-methoxy-2-(1,3,5-trimethyl-1H-pyrazol-4-yl)-1H-indol-3-yl]methylidene}-3-oxo-2,3-dihydro-1-benzofuran-5-yl]-3-[4-(morpholin-4-ylcarbonyl)phenyl]urea] | 1.5 | 3 | 0.55 | 
COc1cc(F)c2[nH]c(-c3c(C)nn(C)c3C)c(/C=C3\Oc4ccc(NC(=O)Nc5ccc(C(=O)N6CCC(N(C)C)C6)cc5)cc4C3=O)c2c1 (stereo not drawn) [Compound 732, 1-(4-{[3-(dimethylamino)pyrrolidin-1-yl]carbonyl}phenyl)-3-[(2Z)-2-{[7-fluoro-5-methoxy-2-(1,3,5-trimethyl-1H-pyrazol-4-yl)-1H-indol-3-yl]methylidene}-3-oxo-2,3-dihydro-1-benzofuran-5-yl]urea] | 1.9 | 1 | 0.33 | 
COc1cc(F)c2[nH]c(-c3c(C)nn(C)c3C)c(/C=C3\Oc4ccc(NC(=O)Nc5ccc(C(=O)NCCN(C)C)cc5)cc4C3=O)c2c1 [Compound 733, N-[2-(dimethylamino)ethyl]-4-({[(2Z)-2-{[7-fluoro-5-methoxy-2-(1,3,5-trimethyl-1H-pyrazol-4-yl)-1H-indol-3-yl]methylidene}-3-oxo-2,3-dihydro-1-benzofuran-5-yl]carbamoyl}amino)benzamide] | 3 | < 1 | 0.3 | 
O=C1/C(=C/c2c(-c3ccc(Cl)cc3)[nH]c3ccccc23)Oc2cc(O)cc(O)c21 [Example 44, (2Z)-2-{[2-(4-chlorophenyl)-1H-indol-3-yl]methylene}-4,6-dihydroxy-1-benzofuran-3(2H)-one] | 1460 | 190 |  | 542
O=C1/C(=C/c2c(-c3ccc4ccccc4c3)[nH]c3ccccc23)Oc2cc(O)cc(O)c21 [Example 45, (2Z)-4,6-dihydroxy-2-{[2-(2-naphthyl)-1H-indol-3-yl]methylene}-1-benzofuran-3(2H)-one] | 1820 | 280 |  | 799
O=C1/C(=C/c2c[nH]c3ccc(Br)cc23)Oc2c1ccc(O)c2O [Example 58, (2Z)-2-[(5-bromo-1H-indol-3-yl)methylene]-6,7-dihydroxy-1-benzofuran-3(2H)-one] | 3530 | 15000 | 310 | 
O=C1/C(=C/c2c[nH]c3ccc(Cl)cc23)Oc2cc(O)cc(O)c21 [Example 60, (2Z)-2-[(5-chloro-1H-indol-3-yl)methylene]-4,6-dihydroxy-1-benzofuran-3(2H)-one] | 3630 | 11000 |  | 492
COc1ccc2[nH]cc(/C=C3\Oc4c(ccc(O)c4O)C3=O)c2c1 [Example 62, (2Z)-6,7-dihydroxy-2-[(5-methoxy-1H-indol-3-yl)methylene]-1-benzofuran-3(2H)-one] | 3770 | 16000 | 673 | 
Cc1ccc2[nH]cc(/C=C3\Oc4c(ccc(O)c4O)C3=O)c2c1 [Example 65, (2Z)-6,7-dihydroxy-2-[(5-methyl-1H-indol-3-yl)methylene]-1-benzofuran-3(2H)-one] | 3770 | > 20000 | 384 | 
O=C1/C(=C/c2c(-c3ccccc3)[nH]c3ccccc23)Oc2c(O)cccc21 [Example 67, (2Z)-7-hydroxy-2-[(2-phenyl-1H-indol-3-yl)methylene]-1-benzofuran-3(2H)-one] | 302 | 8400 | 328 | 
COc1ccc2[nH]c(C)c(C=C3Oc4c(ccc(O)c4O)C3=O)c2c1 [Example 69, 6,7-dihydroxy-2-[(5-methoxy-2-methyl-1H-indol-3-yl)methylene]-1-benzofuran-3(2H)-one] | 3500 | > 20000 | 399 | 
COc1ccc2[nH]cc(C=C3Oc4cccc(O)c4C3=O)c2c1 [Example 78, 4-hydroxy-2-[(5-methoxy-1H-indol-3-yl)methylene]-1-benzofuran-3(2H)-one] | 1200 | 2900 | 516 | 
COc1ccc2c(c1)c(C=C1Oc3c(ccc(O)c3O)C1=O)c(C)n2C [Example 90, 6,7-dihydroxy-2-[(5-methoxy-1,2-dimethyl-1H-indol-3-yl)methylene]-1-benzofuran-3(2H)-one] | 1220 | 1590 | 202 | 
O=C1C(=Cc2c[nH]c3cc(Br)ccc23)Oc2cc(O)cc(O)c21 [Example 143, 2-[(6-bromo-1H-indol-3-yl)methylene]-4,6-dihydroxy-1-benzofuran-3(2H)-one] | 6660 | 4450 | 1850 | 
O=C1C(=Cc2c(-c3ccccc3)n(CCN3CCOCC3)c3ccccc23)Oc2cc(O)cc(O)c21 [Example 147, 4,6-dihydroxy-2-{[1-(2-morpholin-4-ylethyl)-2-phenyl-1H-indol-3-yl]methylene}-1-benzofuran-3(2H)-one] | 6000 | 1080 | 2450 | 
CN(C)CCn1c(-c2ccccc2)c(C=C2Oc3cc(O)cc(O)c3C2=O)c2ccccc21 [Example 148, 2-({1-[2-(dimethylamino)ethyl]-2-phenyl-1H-indol-3-yl}methylene)-4,6-dihydroxy-1-benzofuran-3(2H)-one] | 4710 | 500 | 2680 | 
O=C1C(=Cc2c(-c3ccccc3)n(Cc3ccccc3)c3ccccc23)Oc2cc(O)cc(O)c21 [Example 149, 2-[(1-benzyl-2-phenyl-1H-indol-3-yl)methylene]-4,6-dihydroxy-1-benzofuran-3(2H)-one] | 2010 | 6150 | 1590 | 
CC(C)Cn1c(-c2ccccc2)c(C=C2Oc3cc(O)cc(O)c3C2=O)c2ccccc21 [Example 150, 4,6-dihydroxy-2-[(1-isobutyl-2-phenyl-1H-indol-3-yl)methylene]-1-benzofuran-3(2H)-one] | 2190 | 6450 | 2230 | 
COCCn1c(-c2ccccc2)c(C=C2Oc3cc(O)cc(O)c3C2=O)c2ccccc21 [Example 151, 4,6-dihydroxy-2-{[1-(2-methoxyethyl)-2-phenyl-1H-indol-3-yl]methylene}-1-benzofuran-3(2H)-one] | 4220 | 710 | 2110 | 
O=C1C(=Cc2c(-c3ccccc3)n(CC3CC3)c3ccccc23)Oc2cc(O)cc(O)c21 [Example 152, 2-{[1-(cyclopropylmethyl)-2-phenyl-1H-indol-3-yl]methylene}-4,6-dihydroxy-1-benzofuran-3(2H)-one] | 4470 | 1450 | 4180 | 

Source: patent US20090311217A1, “3-SUBSTITUTED-1H-INDOLE COMPOUNDS, THEIR USE AS MTOR KINASE AND PI3 KINASE INHIBITORS, AND THEIR SYNTHESES” (priority 2008, published 2009)
